Results taken from US9981956B2, “Small molecule inhibitors of fibrosis” (THE CALIFORNIA INSTITUTE FOR BIOMEDICAL RESEARCH, priority 2013, dated 2018).

Tested on: fibroblast to myofibroblast transdifferentiation (primary human lung fibroblasts and primary rodent HSCs)
Assay: High content imaging and western based assay of fibroblast to myofibroblast transdifferentiation (α-SMA)
Assay type: cell-based
Settings: graded, TGF-β induced fibroblast to myofibroblast transdifferentiation
Text: A high content imaging assay, based on α-SMA staining and cell morphological changes associated with fibroblast to myofibroblast transdifferentiation, was established using primary human lung fibroblasts and primary rodent HSCs. Conditions, involving serum starvation and subsequent TGF-β treatment, were identified that facilitate robust in vitro transdifferentiation in a miniaturized (384 well plate) format that is amenable to high throughput small molecule screening. A selective ALK-5 TGF-β1 receptor inhibitor (SB-431542) was used as a positive control. […] This assay was used to identify a hit compound (itraconazole) and was used to evaluate focused panels of itraconazole analogues generated from medicinal chemistry efforts.
The activity of Itraconazole and its analogues was confirmed by analyzing changes in gene expression of multiple genes associated with fibroblast to myofibroblast transdifferentiation using biochemical methods (i.e., Western blot and RT-PCR). These 4-day assays were used to evaluate sets of 6 compounds at a time in 4-point dose response fashion.
After 24 hour incubation, cells were treated with the indicated doses of itraconazole for 48 hours in the presence of 10 ng/mL of TGF-β1 in hepatic stellate medium. Following fixation and staining with an anti smooth muscle actin antibody, cell morphology was analyzed with a Cellomics cell insight imaging reader (FIG. 1 for representative images). Cells were analyzed for mean cellular area of a-SMA staining (FIG. 5a) or mean fluorescence intensity of SMA staining (FIG. 5b).
After 24 incubation, medium was changed to assay medium containing TGF-β1 (10 ng/mL) and simultaneously treated with itraconazole (10 μM), SB431542 (10 μM) or vehicle control (FIG. 6).

CCC(C)n1ncn(-c2ccc(N3CCN(c4ccc(OC[C@@H]5CO[C@@](Cn6cnc(C(F)(F)F)n6)(c6ccc(F)cc6F)O5)cc4)CC3)cc2)c1=O (stereo partly shown) [Compound 10]
EC50: 5 to 30 µM

CCC(C)n1ncn(-c2ccc(N3CCN(c4ccc(OC[C@@H]5CO[C@@](Cn6nccn6)(c6ccc(Cl)cc6Cl)O5)cc4OC)CC3)cc2)c1=O (stereo partly shown) [Compound 51]
EC50: 0.5 to 5 µM

CCC(C)n1cnn(-c2ccc(N3CCN(c4ccc(OC[C@@H]5CO[C@@](Cn6nc7ccccc7n6)(c6ccc(F)cc6F)O5)cc4)CC3)cc2)c1=O (stereo partly shown) [Compound 12]
EC50: 5 to 30 µM

CC(C)Cn1ncn(-c2ccc(N3CCN(c4ccc(OC[C@@H]5CO[C@@](Cn6cncn6)(c6ccc(F)cc6F)O5)cc4)CC3)cc2)c1=O [Compound 14]
EC50: 5 to 30 µM

CCC(C)n1ncn(-c2ccc(N3CCN(c4ccc(OC[C@@H]5CO[C@@](Cn6nccn6)(c6ccc(Cl)cc6Cl)O5)cc4C)CC3)cc2)c1=O (stereo partly shown) [Compound 50]
EC50: 0.5 to 5 µM

CC(O)C(C)n1ncn(-c2ccc(N3CCN(c4ccc(OC[C@@H]5CO[C@@](Cc6ccnnc6)(c6ccc(Cl)cc6Cl)O5)cc4)CC3)cc2)c1=O (stereo partly shown) [Compound 29]
EC50: < 0.5 µM

CCC(C)n1ncn(-c2ccc(N3CCN(c4ccc(OC[C@@H]5CO[C@@](Cn6nccn6)(c6ccc(Cl)cc6Cl)O5)cc4)CC3)cn2)c1=O (stereo partly shown) [Compound 25]
EC50: 5 to 30 µM

CCC(C)n1cnn(-c2ccc(N3CCN(c4ccc(OC[C@@H]5CO[C@@](Cn6ccc(C)n6)(c6ccc(F)cc6F)O5)cc4)CC3)cc2)c1=O (stereo partly shown) [Compound 4]
EC50: 5 to 30 µM

CCc1cc(OC[C@@H]2CO[C@@](Cn3nccn3)(c3ccc(Cl)cc3Cl)O2)ccc1N1CCN(c2ccc(-n3cnn(C(C)CC)c3=O)cc2)CC1 (stereo partly shown) [Compound 81]
EC50: 5 to 30 µM

CCC(C)n1ncn(-c2ccc(N3CCN(c4ccc(OC[C@@H]5CO[C@@](Cn6cncn6)(c6ccc(F)cc6F)O5)cc4)CC3)cc2)c1=O (stereo partly shown) [Compound 6]
EC50: 0.5 to 5 µM

CCC(C)n1ncn(-c2ccc(N3CCN(c4ccc(OC[C@@H]5CO[C@@](Cn6nccn6)(C6CCNCC6)O5)cc4)CC3)cc2)c1=O (stereo partly shown) [Compound 93]
EC50: 5 to 30 µM

CCC(C)n1ncn(-c2ccc(N3CCN(c4ccc(OC[C@@H]5CO[C@@](Cn6nccn6)(c6ccccc6C(F)(F)F)O5)cc4)CC3)cc2)c1=O (stereo partly shown) [Compound 43]
EC50: 5 to 30 µM

CCc1cc(N2CCN(c3ccc(-n4cnn(C(C)CC)c4=O)cc3)CC2)ccc1OC[C@@H]1CO[C@@](Cn2nccn2)(c2ccc(Cl)cc2Cl)O1 (stereo partly shown) [Compound 80]
EC50: 5 to 30 µM

CCC(C)n1ncn(-c2ccc(N3CCN(c4ccc(OC[C@@H]5CO[C@@](Cn6cnc7ccccc76)(c6ccc(Cl)cc6Cl)O5)cc4)CC3)cc2)c1=O (stereo partly shown) [Compound 20]
EC50: 0.5 to 5 µM

CCC(C)n1ncn(-c2ccc(N3CCN(c4ccc(OC[C@@H]5CO[C@](Cn6nccn6)(c6ccc(Cl)cc6Cl)O5)cc4)CC3)cc2)c1=O (mixture of isomers) [Compound 18]
EC50: 5 to 30 µM

CCC(C)n1ncn(-c2ccc(N3CCN(c4ccc(OC[C@@H]5CO[C@@](Cn6nc(Br)nc6Br)(c6ccc(F)cc6F)O5)cc4)CC3)cc2)c1=O (stereo partly shown) [Compound 11]
EC50: 5 to 30 µM

CCC(C)n1ncn(-c2ccc(N3CCN(c4ccc(OC[C@@H]5CO[C@@](Cn6nccn6)(C6CCC6)O5)cc4)CC3)cc2)c1=O (stereo partly shown) [Compound 88]
EC50: 0.5 to 5 µM

CCC(C)n1cnn(-c2ccc(N3CCN(c4ccc(OC[C@@H]5CO[C@@](Cn6cnc(C)n6)(c6ccc(F)cc6F)O5)cc4)CC3)cc2)c1=O (stereo partly shown) [Compound 5]
EC50: 5 to 30 µM

CCC(C)n1ncn(-c2ccc(N3CCN(c4ccc(OC[C@@H]5CO[C@@](Cn6nccn6)(c6ccccc6OC)O5)cc4)CC3)cc2)c1=O (stereo partly shown) [Compound 45]
EC50: 5 to 30 µM

CCC(C)n1ncn(-c2ccc(N3CCN(c4ccc(OC[C@@H]5CO[C@](Cn6nc7ccccc7n6)(c6ccc(Cl)cc6Cl)O5)cc4)CC3)cc2)c1=O (mixture of isomers) [Compound 17]
EC50: 5 to 30 µM

CCC(C)n1ncn(-c2ccc(N3CCN(c4ccc(OC[C@@H]5CO[C@@](Cn6nccn6)(c6ccc(Cl)cc6Cl)O5)cc4C#N)CC3)cc2)c1=O (stereo partly shown) [Compound 52]
EC50: 0.5 to 5 µM

CCC(C)n1ncn(-c2ccc(N3CCN(c4ccc(OC[C@@H]5CO[C@@](Cn6nccn6)(c6ccc(OC)cc6)O5)cc4)CC3)cc2)c1=O (stereo partly shown) [Compound 39]
EC50: 0.5 to 5 µM

CCC(C)n1ncn(-c2ccc(N3CCN(c4ccc(OC[C@@H]5CO[C@@](Cn6nccn6)(c6cccc7ccccc67)O5)cc4)CC3)cc2)c1=O (stereo partly shown) [Compound 63]
EC50: 5 to 30 µM

CCC(C)n1ncn(-c2ccc(N3CCN(c4ccc(OC[C@@H]5CO[C@@](Cn6nccn6)(c6ccc(C(F)(F)F)cc6)O5)cc4)CC3)cc2)c1=O (stereo partly shown) [Compound 38]
EC50: 0.5 to 5 µM

CCC(C)n1ncn(-c2ccc(N3CCN(c4ccc(OC[C@@H]5CO[C@@](Cn6cnc(Br)n6)(c6ccc(F)cc6F)O5)cc4)CC3)cc2)c1=O (stereo partly shown) [Compound 9]
EC50: 5 to 30 µM

CCC(C)n1ncn(-c2ccc(N3CCN(c4ccc(OC[C@@H]5CO[C@@](Cn6nccn6)(C(C)C)O5)cc4)CC3)cc2)c1=O (stereo partly shown) [Compound 90]
EC50: 5 to 30 µM

CCC(C)n1ncn(-c2ccc(N3CCN(c4ccc(OC[C@@H]5CO[C@@](Cn6nccn6)(c6ccc(Cl)cc6Cl)O5)cc4Cl)CC3)cc2)c1=O (stereo partly shown) [Compound 53]
EC50: 0.5 to 5 µM

CCC(C)n1ncn(-c2ccc(N3CCN(c4ccc(OC[C@@H]5CO[C@@](Cn6nccn6)(c6ccc(S(C)(=O)=O)cc6)O5)cc4)CC3)cc2)c1=O (stereo partly shown) [Compound 44]
EC50: 5 to 30 µM

CCC(C)n1ncn(-c2ccc(N3CCN(c4ccc(OC[C@@H]5CO[C@@](Cn6nccn6)(c6cccc(Cl)c6)O5)cc4)CC3)cc2)c1=O (stereo partly shown) [Compound 33]
EC50: 0.5 to 5 µM

CCC(C)n1cnn(-c2ccc(N3CCN(c4ccc(OC[C@@H]5CO[C@@](Cn6nc7ccccc7n6)(c6ccc(Cl)cc6Cl)O5)cc4)CC3)cc2)c1=O (stereo partly shown) [Compound 16]
EC50: 5 to 30 µM

CCC(C)n1ncn(-c2ccc(N3CCN(c4ccc(OC[C@@H]5CO[C@@](Cn6nccn6)(c6ccc(Cl)cc6Cl)O5)c(Cl)c4)CC3)cc2)c1=O (stereo partly shown) [Compound 48]
EC50: 0.5 to 5 µM

CCC(C)n1cnn(-c2ccc(N3CCN(c4ccc(OC[C@@H]5CO[C@@](Cn6nccn6)(c6ccc(F)cc6F)O5)cc4)CC3)cc2)c1=O (stereo partly shown) [Compound 3]
EC50: 5 to 30 µM

CC(C)n1ncn(-c2ccc(N3CCN(c4ccc(OC[C@@H]5CO[C@@](Cn6cncn6)(c6ccc(F)cc6F)O5)cc4)CC3)cc2)c1=O [Compound 13]
EC50: 5 to 30 µM

CCC(C)n1ncn(-c2ccc(N3CCN(c4ccc(OC[C@@H]5CO[C@@](Cn6nccn6)(c6nccs6)O5)cc4)CC3)cc2)c1=O (stereo partly shown) [Compound 78]
EC50: 5 to 30 µM

CCC(C)n1ncn(-c2ccc(N3CCN(c4ccc(OC[C@@H]5CO[C@@](Cn6nccn6)(c6ccc(C#N)cc6)O5)cc4)CC3)cc2)c1=O (stereo partly shown) [Compound 37]
EC50: 0.5 to 5 µM

CCC(C)n1ncn(-c2ccc(N3CCN(c4ccc(OC[C@@H]5CO[C@@](Cn6nccn6)(c6ccc(Cl)cc6Cl)O5)c(OC)c4)CC3)cc2)c1=O (stereo partly shown) [Compound 47]
EC50: 5 to 30 µM

CCC(C)n1ncn(-c2ccc(N3CCN(c4ccc(OC[C@H]5CO[C@@](Cn6cncn6)(c6ccc(F)cc6F)O5)cc4)CC3)cc2)c1=O (mixture of isomers) [Compound 7]
EC50: 5 to 30 µM

CCC(C)n1cnn(-c2ccc(N3CCN(c4ccc(OC[C@@H]5CO[C@@](Cn6nnc7ccccc76)(c6ccc(F)cc6F)O5)cc4)CC3)cc2)c1=O (stereo partly shown) [Compound 8]
EC50: 0.5 to 5 µM

CCC(C)n1ncn(-c2ccc(N3CCN(c4ccc(OC[C@@H]5CO[C@@](Cn6nccn6)(c6cc(Cl)cc(Cl)c6)O5)cc4)CC3)cc2)c1=O (stereo partly shown) [Compound 31]
EC50: 0.5 to 5 µM

CCC(C)n1ncn(-c2ccc(N3CCN(c4ccc(OC[C@@H]5CO[C@@](Cn6nccn6)(c6ccc(Br)cc6)O5)cc4)CC3)cc2)c1=O (stereo partly shown) [Compound 35]
EC50: 0.5 to 5 µM

CCC(C)n1ncn(-c2ccc(N3CCN(c4ccc(OC[C@@H]5CO[C@@](Cn6nccn6)(c6ccc(Cl)cc6Cl)O5)c(C)c4)CC3)cc2)c1=O (stereo partly shown) [Compound 46]
EC50: 5 to 30 µM

CCC(C)n1ncn(-c2ccc(N3CCN(c4ccc(OC[C@@H]5CO[C@@](Cn6nccn6)(C6CCCCC6)O5)cc4)CC3)cc2)c1=O (stereo partly shown) [Compound 58]
EC50: 5 to 30 µM

CCC(C)n1ncn(-c2ccc(N3CCN(c4ccc(OC[C@@H]5CO[C@@](Cn6nccn6)(c6ccc(-c7ccccc7)cc6)O5)cc4)CC3)cc2)c1=O (stereo partly shown) [Compound 72]
EC50: 5 to 30 µM

CCc1ccc([C@]2(Cn3nccn3)OC[C@@H](COc3ccc(N4CCN(c5ccc(-n6cnn(C(C)CC)c6=O)cc5)CC4)cc3)O2)cc1 (stereo partly shown) [Compound 34]
EC50: 0.5 to 5 µM

CCC(C)n1ncn(-c2ccc(N3CCN(c4ccc(OC[C@@H]5CO[C@@](Cn6nccn6)(c6cnccn6)O5)cc4)CC3)cc2)c1=O (stereo partly shown) [Compound 57]
EC50: 5 to 30 µM

CCC(C)n1ncn(-c2ccc(N3CCN(c4ccc(OC[C@@H]5CO[C@@](Cn6nccn6)(c6ccc(C)cc6)O5)cc4)CC3)cc2)c1=O (stereo partly shown) [Compound 40]
EC50: 0.5 to 5 µM

CCC(C)n1ncn(-c2ccc(N3CCN(c4ccc(OC[C@@H]5CO[C@@](Cn6nccn6)(C6CCOCC6)O5)cc4)CC3)cc2)c1=O (stereo partly shown) [Compound 92]
EC50: 5 to 30 µM

CCC(C)n1ncn(-c2ccc(N3CCN(c4ccc(OC[C@@H]5CO[C@@](Cn6nccn6)(c6ccccn6)O5)cc4)CC3)cc2)c1=O (stereo partly shown) [Compound 75]
EC50: 5 to 30 µM

CC[C@@H]([C@H](C)O)n1ncn(-c2ccc(N3CCN(c4ccc(OC[C@@H]5CO[C@@](Cn6cncn6)(c6ccc(F)cc6F)C5)cc4)CC3)cc2)c1=O (racemic) [POS, reference compound]
EC50: 5 to 30 µM
